Laboratory results: US7786111B2, “Medicaments for the treatment of chronic obstructive pulmonary disease” (Boehringer Ingelheim Pharma GmbH & Co. KG, priority 2002, dated 2010)
Counter-ions that a name gives are not always drawn.

SMILES	melting point
CC(C)(Cc1ccc(F)cc1F)NCC(O)c1cc(O)cc2c1OCC(=O)N2 (centres unmarked) (as salt: hydrochloride)	279 to 280 °C
Cc1cc(CC(C)(C)NCC(O)c2cc(O)cc3c2OCC(=O)N3)ccc1F (centres unmarked) (as salt: hydrochloride) [Example 10, 8-{2-[2-(4-Fluoro-3-methylphenyl)-1,1-dimethylethylamino]-1-hydroxyethyl}-6-hydroxy-4H-benzo[1,4]oxazin-3-one]	278 to 280 °C

The next lines start with the values.

melting point	SMILES
235 to 238 °C	Cc1cc(C)cc(CC(C)(C)NCC(O)c2cc(O)cc3c2OCC(=O)N3)c1 (centres unmarked) (as salt: hydrochloride) [Example 15, 8-{2-[2-(3,5-dimethylphenyl)-1,1-dimethylethylamino]-1-hydroxyethyl}-6-hydroxy-4H-benzo[1,4]oxazin-3-one]
278 to 280 °C	Cc1cc(F)ccc1CC(C)(C)NCC(O)c1cc(O)cc2c1OCC(=O)N2 (centres unmarked) (as salt: hydrochloride) [Example 11, 8-{2-[2-(4-fluoro-2-methylphenyl)-1,1-dimethylethylamino]-1-hydroxyethyl}-6-hydroxy-4H-benzo[1,4]oxazin-3-one]
201 to 204 °C	CC(C)(Cc1ccc(OCCCC(=O)O)cc1)NCC(O)c1cc(O)cc2c1OCC(=O)N2 (centres unmarked) [Example 16, 4-(4-{2-[2-hydroxy-2-(6-hydroxy-3-oxo-3,4-dihydro-2H-benzo[1,4]oxazin-8-yl)ethylamino]-2-methylpropyl}phenoxy)butyric acid]
